Test results from US20210221848A1, “POLYMYXIN DERIVATIVES AND THEIR USE IN COMBINATION THERAPY TOGETHER WITH DIFFERENT ANTIBIOTICS” (priority 2014, published 2021).
Like-named read-outs stand apart in the source and are kept apart here.

What was measured:
E. coli [1] = assay: MIC in the presence of a fixed concentration (2 μg/mL) of Rifampicin; format: cell-based, Escherichia coli; conditions: Rifampicin 2 μg/mL, Table 5D
K. pneumoniae [2] = assay: as above; format: cell-based, Klebsiella pneumoniae; conditions: Rifampicin 2 μg/mL, Table 5D
Method: (§1) The inoculum was prepared by making a direct suspension of isolated colonies (selected from an 18-24 hour Mueller-Hinton agar plate) adjusted to the 0.5 McFarland standard. […] The assays were performed in duplicate. […] In cases where the duplicate values varied by less than 2-fold, the lower of the two values is reported. If a variation of greater than 2-fold was observed, the assay was considered non-valid. Several of the compounds were subjected to multiple tests, and where this is the case, the MIC reflects the modal value obtained.

A. baumannii [3] = assay: MIC in the presence of […] of rifampicin; format: cell-based, Acinetobacter baumannii; conditions: for MIC in combination with Rifampicin, A. baumannii ATCC BAA-747: A. baumannii ATCC BAA-747, Table 5D; for MIC in combination with Rifampicin, A. baumannii NCTC 13424: A. baumannii NCTC 13424, Table 5D
Method: as §1

E. coli [4] = tested on: E. coli
K. pneumoniae [5] = tested on: K. pneumoniae
A. baumannii [6] = tested on: A. baumannii
[7] = tested on: E. coli strains with elevated MICs to Polymyxin B; assay: MIC against strains with elevated MICs to Polymyxin B; format: cell-based, Escherichia coli; conditions: Table 6D
In short: (§2)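 Reported MIC is the lower of duplicates agreeing within 2-fold, or the mode where compounds were tested repeatedly. Assays with greater than 2-fold duplicate variation were rejected. Colonies grown 18-24 hours on Mueller-Hinton agar were suspended to 0.5 McFarland as inoculum.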

[8] = tested on: K. pneumoniae strains with elevated MICs to Polymyxin B; assay: as above; format: cell-based, Klebsiella pneumoniae; conditions: Table 6D
In short: as §2

[9] = tested on: P. aeruginosa strains with elevated MICs to Polymyxin B; assay: as above; format: cell-based, Pseudomonas aeruginosa; conditions: Table 6D
In short: as §2

[10] = tested on: A. baumanii strains with elevated MICs to Polymyxin B; assay: as above; format: cell-based, Acinetobacter baumannii; conditions: Table 6D
In short: as §2

[11] = absence of a second agent, Table 6B

## (cis-5-cyclohexyl- piperidine)-3-carbonyl polymyxin B nonapeptide [Example D10]
E. coli [1]
  MIC in combination with Rifampicin, E. coli NCTC 13441: 0.5 micrograms/mL
K. pneumoniae [2]
  MIC in combination with Rifampicin, K. pneumoniae ATCC 4352: 0.125 micrograms/mL
  MIC in combination with Rifampicin, K. pneumoniae ATCC BAA-2146: 0.25 micrograms/mL
A. baumannii [3]
  MIC in combination with Rifampicin, A. baumannii ATCC BAA-747: 0.5 micrograms/mL
  MIC in combination with Rifampicin, A. baumannii NCTC 13424: ≤0.015 micrograms/mL
E. coli [4]; [11]
  MIC, E. coli ATCC 25922: 4 micrograms/mL
  MIC, E. coli NCTC 13441: 4 micrograms/mL
K. pneumoniae [5]; [11]
  MIC, K. pneumoniae ATCC 4352: 8 micrograms/mL
  MIC, K. pneumoniae ATCC BAA-2146: >8 micrograms/mL
P. aeruginosa; [11]
  MIC, P. aeruginosa ATCC 27853: 1 micrograms/mL
  MIC, P. aeruginosa CCUG 59347: 2 micrograms/mL
A. baumannii [6]; [11]
  MIC, A. baumannii ATCC BAA-747: >8 micrograms/mL
  MIC, A. baumannii NCTC 13424: 8 micrograms/mL

## (trans-5-cyclohexyl- piperidine)-3-carbonyl polymyxin B nonapeptide [Example D12]
E. coli [1]
  MIC in combination with Rifampicin, E. coli ATCC 25922: 0.06 micrograms/mL
  MIC in combination with Rifampicin, E. coli NCTC 13441: 0.25 micrograms/mL
K. pneumoniae [2]
  MIC in combination with Rifampicin, K. pneumoniae ATCC 4352: 0.125 micrograms/mL
  MIC in combination with Rifampicin, K. pneumoniae ATCC BAA-2146: 0.25 micrograms/mL
A. baumannii [3]
  MIC in combination with Rifampicin, A. baumannii ATCC BAA-747: 0.5 micrograms/mL
  MIC in combination with Rifampicin, A. baumannii NCTC 13424: 0.03 micrograms/mL
E. coli [4]; [11]
  MIC, E. coli ATCC 25922: >8 micrograms/mL
  MIC, E. coli NCTC 13441: >8 micrograms/mL
K. pneumoniae [5]; [11]
  MIC, K. pneumoniae ATCC 4352: >8 micrograms/mL
  MIC, K. pneumoniae ATCC BAA-2146: >8 micrograms/mL
P. aeruginosa; [11]
  MIC, P. aeruginosa ATCC 27853: 1 micrograms/mL
  MIC, P. aeruginosa CCUG 59347: 4 micrograms/mL
A. baumannii [6]; [11]
  MIC, A. baumannii ATCC BAA-747: >8 micrograms/mL
  MIC, A. baumannii NCTC 13424: >8 micrograms/mL

## (trans-5-cyclohexyl- piperidine)-3-carbonyl polymyxin B nonapeptide [Example D13]
E. coli [1]
  MIC in combination with Rifampicin, E. coli ATCC 25922: 0.06 micrograms/mL
  MIC in combination with Rifampicin, E. coli NCTC 13441: 0.125 micrograms/mL
K. pneumoniae [2]
  MIC in combination with Rifampicin, K. pneumoniae ATCC 4352: 0.125 micrograms/mL
  MIC in combination with Rifampicin, K. pneumoniae ATCC BAA-2146: 0.125 micrograms/mL
A. baumannii [3]
  MIC in combination with Rifampicin, A. baumannii ATCC BAA-747: 0.125 micrograms/mL
  MIC in combination with Rifampicin, A. baumannii NCTC 13424: 0.06 micrograms/mL
E. coli [4]; [11]
  MIC, E. coli NCTC 13441: 0.125 micrograms/mL
K. pneumoniae [5]; [11]
  MIC, K. pneumoniae ATCC 4352: 0.125 micrograms/mL
  MIC, K. pneumoniae ATCC BAA-2146: 0.25 micrograms/mL
P. aeruginosa; [11]
  MIC, P. aeruginosa ATCC 27853: 0.5 micrograms/mL
  MIC, P. aeruginosa CCUG 59347: 0.5 micrograms/mL
A. baumannii [6]; [11]
  MIC, A. baumannii ATCC BAA-747: 0.5 micrograms/mL
  MIC, A. baumannii NCTC 13424: 0.125 micrograms/mL

## trans-5-phenyl- piperidine-3- carbonyl L-Thr-L- Dap-polymyxin B heptapeptide [Example D84]
[7]; strain 058, elevated MIC to Polymyxin B
  MIC E. coli 058: 4 micrograms/mL
[7]; strain 059, elevated MIC to Polymyxin B
  MIC E. coli 059: 8 micrograms/mL
[7]; strain 060, elevated MIC to Polymyxin B
  MIC E. coli 060: 4 micrograms/mL
[7]; strain 061, elevated MIC to Polymyxin B
  MIC E. coli 061: 8 micrograms/mL
[8]; strain 062, elevated MIC to Polymyxin B
  MIC K. pneumoniae 062: >64 micrograms/mL
[8]; strain 063, elevated MIC to Polymyxin B
  MIC K. pneumoniae 063: 32 micrograms/mL
[8]; strain 064, elevated MIC to Polymyxin B
  MIC K. pneumoniae 064: 8 micrograms/mL
[8]; strain 655, elevated MIC to Polymyxin B
  MIC K. pneumoniae 655: 16 micrograms/mL
[9]; strain 065, elevated MIC to Polymyxin B
  MIC P. aeruginosa 065: 8 micrograms/mL
[9]; strain 066, elevated MIC to Polymyxin B
  MIC P. aeruginosa 066: 2 micrograms/mL
[9]; strain 067, elevated MIC to Polymyxin B
  MIC P. aeruginosa 067: >64 micrograms/mL
[10]; strain 053, elevated MIC to Polymyxin B
  MIC A. baumannii 053: >64 micrograms/mL
[10]; strain 056, elevated MIC to Polymyxin B
  MIC A. baumannii 056: 32 micrograms/mL
[10]; strain 068, elevated MIC to Polymyxin B
  MIC A. baumannii 068: 8 micrograms/mL
[10]; strain 070, elevated MIC to Polymyxin B
  MIC A. baumannii 070: 16 micrograms/mL
E. coli [4]; sole activity, Table 6C
  MIC, E. coli ATCC 25922: 0.25 micrograms/mL
  MIC, E. coli NCTC 13441: 0.06 micrograms/mL
K. pneumoniae [5]; sole activity, Table 6C
  MIC, K. pneumoniae ATCC 4352: 0.125 micrograms/mL
P. aeruginosa; sole activity, Table 6C
  MIC, P. aeruginosa ATCC 27853: 0.5 micrograms/mL
  MIC, P. aeruginosa CCUG 59347: 0.5 micrograms/mL
A. baumannii [6]; sole activity, Table 6C
  MIC, A. baumannii ATCC BAA-747: 0.06 micrograms/mL
  MIC, A. baumannii NCTC 13424: 0.25 micrograms/mL
